What was measured:
[1] = molecular target: T1, lysosomal acid lipase (LAL) (Homo sapiens, UniProt P38571); assay: Testing potential LAL substrates with DBS; assay type: biochemical
T1 construct: from tissue; host or cells: dried blood spots (DBS) from healthy adults, healthy children and LAL-deficient patients
T1 sequence (P38571 77-399): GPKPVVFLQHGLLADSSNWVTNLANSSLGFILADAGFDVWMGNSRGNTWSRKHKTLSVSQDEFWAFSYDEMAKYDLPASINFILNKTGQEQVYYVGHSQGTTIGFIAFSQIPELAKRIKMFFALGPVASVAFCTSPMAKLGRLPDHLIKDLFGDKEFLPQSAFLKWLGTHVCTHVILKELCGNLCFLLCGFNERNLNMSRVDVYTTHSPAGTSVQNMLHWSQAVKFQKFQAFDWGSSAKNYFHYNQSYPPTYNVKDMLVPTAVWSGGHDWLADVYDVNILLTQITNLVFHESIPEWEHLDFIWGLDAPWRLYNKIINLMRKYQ
Protocol: Compound 8. Assay cocktail contained 0.69 mM Compound 8, 10 mM internal standard (analog of the product containing an n-hexanoyl amide tail instead of the n-pentanoyl amide tail) in 0.15 M sodium acetate, pH 4.02, containing 0.1% Triton X-100. Assay cocktail (30 mL) was added to a 3 mm DBS punch from a normal adult and 10 mL of 30 mM aqueous Lalistat-2 or H2O was added, and the mixture was incubated at 37° C. for 16 hr in an Eppendorf tube with orbital shaking at 250 rpm. The assay was quenched by addition of 120 mL of acetonitrile. The sample was centrifuged for 5 min at 3000×g, and 120 mL of supernatant was transferred to an autosampler plate. Water (60 mL) was added to the well, and 10 mL was injected for UPLC-MS/MS. Compound 8 product was analyzed by UPLC-MS/MS using the authentic product as a standard to establish UPLC and MS/MS conditions.
Compound 9. Assay cocktail contained 0.3 mM Compound 9 (from a 10 mM DMSO stock) in a 14:1 solution of 0.15 M sodium acetate pH 4.0 1% Triton-X-100 and 0.5% m/v cardiolipin in methanol. […] Compound 9 product was analyzed by UPLC-MS/MS using the authentic product as a standard to establish UPLC and MS/MS conditions.
Compounds 10-13. […] Samples were immediately read on a plate-reader fluorometer with an excitation wavelength of 355 nm and emission wavelength of 460 nm. […]

[2] = molecular target: T1, lysosomal acid lipase (LAL); assay: Previous fluorometric LAL assay (Hamilton et al.) with palmitoyl-4MU with and without Lalistat-2 in DBS; assay type: biochemical
Source text: LAL is detected in leukocytes or fibroblasts using radiometric, immunologic, or fluorescence assays (The metabolic and molecular bases of inherited disease. 8th Ed. New York (NY): McGraw-Hill; 2001. p. 3827-3387). Hamilton and colleagues recently developed a fluorometric assay to detect LAL in dried blood spots (DBS) (Hamilton et al., Clin Chim Acta 2012; 413:1207-10). The assay is based on the release of 4-methylumbelliferone from its ester with palmitic acid. However, the substrate is not specific for LAL, and the method requires two assays performed in parallel, the first in the presence of a LAL-specific covalent inactivator Lalistat-2. LAL activity is calculated from the difference in these 2 assays.
A concentration of P-PMHC in the mixture of 3 mmol/L was settled on based on a combination of high LAL activity and minimal background. The original assay described by Hamilton et al. (Clin Chim Acta 2012; 413:1207-10) used 40 μL of an aqueous extract of a 3-mm DBS added to 160 μL of assay mixture. To keep the solvent volumes for the liquid-liquid extraction to a minimum, thus avoiding long times for solvent removal, 10 μL of an aqueous extract of a 3-mm DBS punch was added to 30 μL of assay mixture.

| specific activity for the LAL component ([2]; 3-mm punch from an identical DBS, previous fluorometric assay with and without Lalistat-2) | fold lower than the activity measured with the UPLC-MS/MS assay ([2]; 466 versus 874 μmol/h/L, identical DBS) | fraction of the substrate hydrolyzed by esterases/lipases in DBS other than LAL ([2]; DBS) | Compound | detectable LAL activity when tested with DBS [1] |
| --- | --- | --- | --- | --- |
| – | – | – | 4-propyl-8-methyl-7-palmitoyloxycoumarin [Compound 1] | None of these compounds displayed detectable LAL activity |
| 466 µmol/h/L | 1.9 fold | about one third | CCCCCCCCCCCCCCCC(=O)Oc1ccc2c(C)cc(=O)oc2c1 [palmitoyl-4MU] | displayed measurable LAL activity |

— patent US11396499B2, “Lysosomal acid lipase assay” (University of Washington, priority 2018, dated 2022)
